Measurements as given in patent US12410171B2, “Tropomyosin receptor kinase (TRK) degradation compounds and methods of use” (Cullgen (Shanghai), Inc., priority 2020, dated 2025).
Where two headings read alike, the source gives them in different places.

Assays:
KM12 cells = test: KM12 cell viability (CellTiter-Glo); type: cell-based; conditions: Homo sapiens
Summary of the method: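 Three-day exposure of KM12 cells (5000/well, RPMI 1640 with 10% FBS, 37 °C, 5% CO2) to compound dilution series, 3-fold over 8 or 11 points (top 1000 nM in the 8-point format) or 2-fold over 12. CellTiter-Glo readout, with IC50 fitted by nonlinear least-squares regression.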

TPM3-TRKA fusion protein = target: T1, TPM3-TRKA fusion protein (Homo sapiens, UniProt P04629); test: TPM3-TRKA fusion protein levels in KM12 cells (Western blot); type: cell-based; conditions: read-out: Degradation (at 10 nM)
T1 construct: The resulted chimeric proteins always retain the kinase domain of TRK proteins; TPM3 (fusion partner, N-terminal part of tropomyosin alpha-3, P06753); endogenous in cells; host or cells: KM12 colon cancer cells; the other entry of the earlier key: TPM3 (P06753, Tropomyosin alpha-3 chain)
Summary of the method: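 TPM3-TRKA levels were assessed by Western blot with chemiluminescent detection and band densitometry, after SDS-PAGE of BCA-normalized RIPA lysates. Before lysis, KM12 cells received DMSO, compounds or matched control compounds at concentrations including 0.1, 1, 10 and 100 nM and 0.4–30 nM. Exposures lasted 4 h, 8–16 h or 16 h.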

[1] = 72 h, KM12 cell viability, CellTiter-Glo, three days treatment, read-out: IC50
[2] = 16 h, TPM3-TRKA degradation in KM12 cells at 10 nM compound, category of percentage degradation

T1 sequence (P04629 with tags, fused parts or gaps): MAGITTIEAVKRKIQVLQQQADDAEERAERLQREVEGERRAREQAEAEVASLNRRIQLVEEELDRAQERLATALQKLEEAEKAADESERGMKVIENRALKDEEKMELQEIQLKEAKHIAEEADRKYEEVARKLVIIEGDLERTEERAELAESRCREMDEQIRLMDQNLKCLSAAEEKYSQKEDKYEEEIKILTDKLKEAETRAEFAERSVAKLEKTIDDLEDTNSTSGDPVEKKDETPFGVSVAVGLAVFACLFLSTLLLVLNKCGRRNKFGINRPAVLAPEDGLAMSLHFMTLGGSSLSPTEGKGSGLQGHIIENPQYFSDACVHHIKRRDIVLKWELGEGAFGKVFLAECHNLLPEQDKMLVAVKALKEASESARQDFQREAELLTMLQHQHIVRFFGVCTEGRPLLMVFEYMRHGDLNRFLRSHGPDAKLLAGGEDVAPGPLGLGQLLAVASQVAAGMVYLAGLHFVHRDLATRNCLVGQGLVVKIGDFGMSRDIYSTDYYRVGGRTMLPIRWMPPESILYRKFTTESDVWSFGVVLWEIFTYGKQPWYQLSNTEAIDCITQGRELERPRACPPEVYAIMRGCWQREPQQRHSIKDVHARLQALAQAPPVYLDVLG

Structure (SMILES)	percent degradation of TPM3-TRKA protein at 0.01 µM (TPM3-TRKA fusion protein; [2]) [%]	IC50 (KM12 cells; [1]) [nM]	other results
O=C1CCC(N2Cc3cc(C4CN(C5CCN(c6ccc(C(=O)Nc7n[nH]c8ccc(Cc9cc(F)cc(F)c9)cc78)c(NC7CCOCC7)c6)CC5)C4)ccc3C2=O)C(=O)N1 (stereo not drawn) [TR-338, N-(5-(3,5-difluorobenzyl)-1H-indazol-3-yl)-4-(4-(3-(2-(2,6-dioxopiperidin-3-yl)-1-oxoisoindolin-5-yl)azetidin-1-yl)piperidin-1-yl)-2-((tetrahydro-2H-pyran-4-yl)amino)benzamide]	–	1.3	percent degradation of TPM3-TRKA protein at 0.01 µM (TPM3-TRKA fusion protein; KM12, 16 h): > 80%
O=C1CCC(N2Cc3cc(C4CN(C5CCN(c6cccc(-c7cnc8ccc(N9CCC[C@@H]9c9cccc(F)c9)nn78)n6)CC5)C4)ccc3C2=O)C(=O)N1 (stereo partly drawn) [TR-302, 3-(5-(1-(1-(6-(6-((R)-2-(3-fluorophenyl)pyrrolidin-1-yl)imidazo[1,2-b]pyridazin-3-yl)pyridin-2-yl)piperidin-4-yl)azetidin-3-yl)-1-oxoisoindolin-2-yl)piperidine-2,6-dione]	–	1.7	percent degradation of TPM3-TRKA protein at 0.01 µM (TPM3-TRKA fusion protein; KM12, 16 h): > 80%
Cn1c(=O)n(C2CCC(=O)NC2=O)c2ccc(OCCN3CCN(c4cccc(-c5cnc6ccc(N7CCC[C@@H]7c7cccc(F)c7)nn56)n4)CC3)cc21 (stereo partly drawn) [TR-246, 3-(5-(2-(4-(6-(6-((R)-2-(3-Fluorophenyl)pyrrolidin-1-yl)imidazo[1,2-b]pyridazin-3-yl)pyridin-2-yl)piperazin-1-yl)ethoxy)-3-methyl-2-oxo-2,3-dihydro-1H-benzo[d]imidazol-1-yl)piperidine-2,6-dione]	> 80	101	–
O=C1CCC(N2C(=O)c3ccc(N4CCC(CN5CCN(c6cccc(-c7cnc8ccc(N9CCC[C@@H]9c9cccc(F)c9)nn78)n6)CC5)C4)cc3C2=O)C(=O)N1 (stereo partly drawn) [TR-225, 2-(2,6-dioxopiperidin-3-yl)-5-(3-((4-(6-(6-((R)-2˜ (3-fluorophenyl)pyrrolidin-1-yl)imidazo[1,2-b]pyridazin-3-yl)pyridin-2-yl)piperazin-1-yl)methyl)pyrrolidin-1-yl)isoindoline-1,3-dione]	> 80	8.4	–
Cn1c(=O)n(C2CCC(=O)NC2=O)c2ccc(N3CC(CN4CCN(c5cccc(-c6cnc7ccc(N8CCC[C@@H]8c8cccc(F)c8)nn67)n5)CC4)C3)cc21 (stereo partly drawn) [TR-250, 3-(5-(3-((4-(6-(6-((R)-2-(3-fluorophenyl)pyrrolidin-1-yl)imidazo[1,2-b]pyridazin-3-yl)pyridin-2-yl)piperazin-1-yl)methyl)azetidin-1-yl)-3-methyl-2-oxo-2,3-dihydro-1H-benzo[d]imidazol-1-yl)piperidine-2,6-dione]	> 80	16.1	–
O=C1CCC(N2C(=O)c3ccc(NCCN4CCN(c5ccc(C(=O)Nc6n[nH]c7ccc(Cc8cc(F)cc(F)c8)cc67)cc5)CC4)cc3C2=O)C(=O)N1 (stereo not drawn) [TR-263, N-(5-(3,5-difluorobenzyl)-1H-indazol-3-yl)-4-(4-(2-((2-(2,6-dioxopiperidin-3-yl)-1,3-dioxoisoindolin-5-yl)amino)ethyl)piperazin-1-yl)benzamide]	50 to 80	19.2	–
O=C1CCC(N2Cc3cc(C#CCN4CCN(c5ccc(C(=O)Nc6n[nH]c7ccc(Cc8cc(F)cc(F)c8)cc67)cc5)CC4)ccc3C2=O)C(=O)N1 (stereo not drawn) [TR-256, N—(S-(3,5-Difluorobenzyl)-1H-indazol-3-yl)-4-(4-(3-(2-(2,6-dioxopiperidin-3-yl)-1-oxoisoindolin-5-yl)prop-2-yn-1-yl)piperazin-1˜yl)benzamide]	50 to 80	46.9	–
NC(=O)C1CCN(c2cc(CN3CCN(C(=O)CCCCCNc4cccc5c4C(=O)N(C4CCC(=O)NC4=O)C5=O)CC3)ccc2NC(=O)c2coc(N3CCOCC3)n2)CC1 (stereo not drawn) [CPD-482, N-(2-(4-carbamoylpiperidin-1-yl)-4-((4-(6-((2-(2,6-dioxopiperidin-3-yl)-1,3-dioxoisoindolin-4-yl)amino)hexanoyl)piperazin-1-yl)methyl)phenyl)-2-morpholinooxazole-4-carboxamide]	–	–	IC50 (KM12 cells; 72 h, KM12 cell viability, 11-point 3-fold serial dilution, 3 days, CellTiter-Glo, read-out: IC50): 4.7 nM; percent degradation of TPM3-TRKA protein at 0.01 µM (TPM3-TRKA fusion protein; 16 h, TPM3-TRKA degradation in KM12 cells at 10 nM): > 80%
O=C1CCC(N2C(=O)Cc3c(NCCN4CCN(c5cccc(-c6cnc7ccc(N8CCC[C@@H]8c8cccc(F)c8)nn67)n5)CC4)cccc32)C(=O)N1 (stereo partly drawn) [TR-236, 3-(4-((2-(4-(6-(6-((R)-2-(3-Fluorophenyl)pyrrolidin-1-yl)imidazo[1,2-b]pyridazin-3-yl)pyridin-2-yl)piperazin-1-yl)ethyl)amino)-2-oxoindolin-1-yl)piperidine-2,6-dione]	< 50	99.2	–
O=C(CN1CCN(c2cccc(-c3cnc4ccc(N5CCC[C@@H]5c5cccc(F)c5)nn34)n2)CC1)NCCNc1ccc2c(c1)C(=O)N(C1CCC(=O)NC1=O)C2=O (stereo partly drawn) [TR-130, N-(2-((2-(2,6-dioxopiperidin-3-yl)-1,3-dioxoisoindolin-5-yl]amino)ethyl)-2-(4˜ (6˜ (6-((R)-2-(3-fluorophenyl)pyrrolidin-1-yl)imidazo[1,2-b]pyridazin-3-yl)pyridin-2-yl)piperazin-1-yl)acetamide]	> 80	0.9	–
NC(=O)C1CCN(c2cc(CN3CCN(C(=O)CNc4cccc5c4C(=O)N(C4CCC(=O)NC4=O)C5=O)CC3)ccc2NC(=O)c2coc(N3CCOCC3)n2)CC1 (stereo not drawn) [CPD-478, N-(2-(4-carbamoylpiperidin-1-yl)-4-((4-((2-(2,6-dioxopiperidin-3-yl)-1,3-dioxoisoindolin-4-yl)glycyl)piperazin-1-yl)methyl)phenyl)-2-morpholinooxazole-4-carboxamide]	–	–	IC50 (KM12 cells; KM12, 72 h): 28 nM; percent degradation of TPM3-TRKA protein at 0.01 µM (TPM3-TRKA fusion protein; KM12, 16 h): > 80%
O=C1CCC(N2Cc3cc(C#CCN4CCN(c5ccc(C(=O)Nc6n[nH]c7ccc(Cc8cc(F)cc(F)c8)cc67)c(NCCF)c5)CC4)ccc3C2=O)C(=O)N1 (stereo not drawn) [TR-255, N—(S-(3,5-Difluorobenzyl)-1H-indazol-3-yl)-4-(4-(3-(2-(2,6-dioxopiperidin-3-yl)-1-oxoisoindolin-5-yl)prop-2-yn-1-yl)piperazin-1-yl)-2-((2-fluoroethyl)amino)benzamide]	> 80	14.4	–

Second part, led by results:

percent degradation of TPM3-TRKA protein at 0.01 µM (TPM3-TRKA fusion protein; [2]) [%]	Structure (SMILES)	IC50 (KM12 cells; [1]) [nM]	other results
> 80	Cn1c(=O)n(C2CCC(=O)NC2=O)c2cccc(C#CCN3CCN(c4ccc(C(=O)Nc5n[nH]c6ccc(Cc7cc(F)cc(F)c7)cc56)c(NC5CCOCC5)c4)CC3)c21 (stereo not drawn) [TR-303, N-(5-(3,5˜Difluorobenzyl)-1H-indazol-3-yl)-4-(4-(3-(1-(2,6-dioxopiperidin-3-yl)-3-methyl-2-oxo-2,3˜dihydro-1/7-benzo[d]imidazol-4-yl)prop-2-yn-1-yl)piperazin-1-yl)-2-((tetrahydro-2/-pyran-4-yl)amino)benzamide]	8.4	–
50 to 80	Cc1nc2cccc(N3CC(CN4CCN(c5cccc(-c6cnc7ccc(N8CCC[C@@H]8c8cccc(F)c8)nn67)n5)CC4)C3)c2c(=O)n1C1CCC(=O)NC1=O (stereo partly drawn) [TR-295]	30	–
50 to 80	O=C1CCC(N2Cc3ccc(N4CC(N5CCN(c6cccc(-c7cnc8ccc(N9CCC[C@@H]9c9cccc(F)c9)nn78)n6)CC5)C4)cc3C2=O)C(=O)N1 (stereo partly drawn) [TR-335, 3-(6-(3-(4-(6-(6-((R)-2-(3-fluorophenyl)pyrrolidin-1-yl)imidazo[1,2-b]pyridazin-3-yl)pyridin-2-yl)piperazin-1-yl)azetidin-1-yl)-1-oxoisoindolin-2-yl)piperidine-2,6-dione]	8.3	–
> 80	O=C1CCC(N2C(=O)c3ccc(N4CCC(CN5CCN(c6ccc(C(=O)Nc7n[nH]c8ccc(Cc9cc(F)cc(F)c9)cc78)c(NC7CCOCC7)c6)CC5)C4)cc3C2=O)C(=O)N1 (stereo not drawn) [TR-270, N-(5-(3,5-difluorobenzyl)-1H-indazol-3-yl)-4-(4-((1-(2-(2,6-dioxopiperidin-3-yl)-1,3-dioxoisoindolin-5-yl)pyrrolidin-3-yl)methyl)piperazin-1-yl)-2-((tetrahydro-2H-pyran-4-yl)amino)benzamide]	10.3	–
50 to 80	O=C1CCC(N2C(=O)c3ccc(N4CCCC(N5CCN(c6ccc(C(=O)Nc7n[nH]c8ccc(Cc9cc(F)cc(F)c9)cc78)c(NC7CCOCC7)c6)CC5)C4)cc3C2=O)C(=O)N1 (stereo not drawn) [TR-278, N-(5-(3,5-Difluorobenzyl)-1H-indazol-3-yl)-4-(4-(1-(2-(2,6-dioxopiperidin-3-yl)-1,3-dioxoisoindolin-5-yl)piperidin-3-yl)piperazin-1-yl)-2-((tetrahydro-2/-pyran-4-yl)amino)benzamide]	34.7	–
> 80	Cn1c(=O)n(C2CCC(=O)NC2=O)c2cccc(NCCCN3CCN(c4ccc(C(=O)Nc5n[nH]c6ccc(Cc7cc(F)cc(F)c7)cc56)c(NC5CCOCC5)c4)CC3)c21 (stereo not drawn) [TR-315, N—(S-(3,5-difluorobenzyl)-1H-indazol-3-yl)-4-(4-(3-((1-(2,6-dioxopiperidin-3-yl)-3-methyl-2-oxo-2,3-dihydro-1H-benzo[d]imidazol-4-yl)amino)propyl)piperazin-1-yl)-2-((tetrahydro-2H-pyran-4-yl)amino)benzamide]	4.5	–
